The values that follow come from article PMC5563081, “Modulating Protein-Protein Interactions of the Mitotic Polo-like Kinases to Target Mutant KRAS” (Cell Chemical Biology, 2017).

Like-named read-outs stand apart in the source and are kept apart here.

The nature of data set [1]: Stability in human hepatocytes. In kind it is in vitro ADME.
In another data set the test system is phospho-Ser10 histone H3. As to the kind of experiment: Phospho-histone H3 (Ser10) in xenograft tumour lysates (Western blot). In kind it is in vivo, mouse. Particulars: within 24 hr after single 200mg/kg oral dose, compared with vehicle. The procedure:
Tumours were established by sub-cutaneous implantation of 2 x 10^6 HCT116 cells suspended in 50% Matrigel into the flanks of a cohort of mice. When a sufficient number of mice had developed tumours of approximately 100mm3, they were randomly assigned to three groups: Vehicle, 50mg/kg Poloppin-II or 200mg/kg Poloppin-II, with 10 mice per group. Mice were treated orally according to their treatment group once every three days. Tumour volume was measured three times per week with calipers. Body weight was measured three times per week. In addition to mice assigned to tumour volume efficacy arm of the study, 16 mice with established HCT116 xenografts were assigned to either Vehicle or 200mg/kg oral dosing groups, with 8 mice per group. 24 hours after a single dose, mice were euthanised, tumours removed, snap frozen and 30-50microgram of lysates were analysed by Western blotting on 4-12% Bis-Tris acrylamide gels, and transferred using the Invitrogen iBlot dry system. Phospho-Histone H3 was detected using Abcam antibody ab5176, beta-actin with Sigma antibody a5316. […] HRP was visualised with ECL-Plus (GE Healthcare).
Background: A western blot detects proteins with antibodies after separation by electrophoresis.

In the next data set the target is T1, NEK9 (Homo sapiens, UniProt Q8TD19).
T1 construct: purchased DiscoverX KINOMEscan
T1 sequence (Q8TD19 whole entry): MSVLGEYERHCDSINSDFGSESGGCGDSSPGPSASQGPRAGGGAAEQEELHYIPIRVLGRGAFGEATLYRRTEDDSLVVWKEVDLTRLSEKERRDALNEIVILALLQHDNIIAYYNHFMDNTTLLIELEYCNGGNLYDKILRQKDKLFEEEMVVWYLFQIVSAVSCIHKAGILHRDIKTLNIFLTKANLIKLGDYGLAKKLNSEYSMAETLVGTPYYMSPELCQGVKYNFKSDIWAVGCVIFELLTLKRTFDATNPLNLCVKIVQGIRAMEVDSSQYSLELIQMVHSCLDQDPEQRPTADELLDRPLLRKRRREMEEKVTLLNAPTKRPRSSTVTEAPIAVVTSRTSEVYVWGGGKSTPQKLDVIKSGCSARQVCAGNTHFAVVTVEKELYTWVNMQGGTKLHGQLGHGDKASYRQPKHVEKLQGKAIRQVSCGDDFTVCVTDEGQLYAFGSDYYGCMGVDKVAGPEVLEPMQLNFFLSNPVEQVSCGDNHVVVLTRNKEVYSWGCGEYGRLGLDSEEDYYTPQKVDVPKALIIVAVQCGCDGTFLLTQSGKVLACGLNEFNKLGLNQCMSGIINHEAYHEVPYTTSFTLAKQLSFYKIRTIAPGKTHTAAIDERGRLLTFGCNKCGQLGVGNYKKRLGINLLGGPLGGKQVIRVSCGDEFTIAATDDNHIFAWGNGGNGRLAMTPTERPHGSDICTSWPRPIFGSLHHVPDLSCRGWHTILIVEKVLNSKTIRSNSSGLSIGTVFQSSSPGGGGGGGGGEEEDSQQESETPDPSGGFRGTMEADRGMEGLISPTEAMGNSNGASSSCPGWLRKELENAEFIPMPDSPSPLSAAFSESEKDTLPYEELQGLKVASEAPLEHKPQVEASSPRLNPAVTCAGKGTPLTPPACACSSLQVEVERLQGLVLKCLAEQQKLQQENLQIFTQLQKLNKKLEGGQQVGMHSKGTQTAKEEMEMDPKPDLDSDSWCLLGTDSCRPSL
Description: DiscoverX KINOMEscan. Particulars: read-out: % Control. In kind it is binding. The procedure:
A panel of 55 proteins (comprising 51 human kinases structurally or functionally related to the PLKs, plus the kinase catalytic domains of PLK1, PLK2, PLK3 and PLK4) were selected for testing by DiscoverX using the KINOMEscan assay platform. Compounds were supplied as 40x DMSO stocks and were tested at a final concentration of 50μM for Poloppin and 5μM for Poloppin-II. Binding interactions were reported as percentage of control where lower numbers indicate stronger binding. A cut-off of <35% was applied to report significant binding.

A further data set deals with human cell lines. As to the kind of experiment: Dose-dependent mitotic arrest (Figure 1F). The class given is cell-based. The procedure: Cells were plated at 10 000/well in 96-well plates and incubated overnight. The following day compound stocks in DMSO were diluted in medium then added to cells with a maximum final DMSO concentration on cells of 0.2%. Cells were incubated with compound for 24 h then fixed in 3.7% formaldeyde. Cells were permeabilised with 0.1% Triton X-100 then incubated with anti-phospho-histone H3 (Ser10) antibody (Abcam ab5176). The cells were washed with PBS then incubated with AlexaFluor 488 labelled goat anti-rabbit IgG (Invitrogen A11034) in the presence of 4ug/ml Hoechst 33342 (Invitrogen H3570). Cells were washed in PBS then imaged on an Arrayscan VTi HCS instrument (Thermo Fisher) using the Target Activation V4 Bioapplication. A user-defined threshold was applied to identify mitotic cells based on the intensity of phospho-histone H3 staining.

Another data set concerns HeLa-KRAS G12D. As to the kind of experiment: GI50 for cell killing, HeLa-KRAS G12D. In kind it is cell-based. Particulars: Homo sapiens. The protocol:
Five x10^4 cells were seeded on each well of 4-well coverglass Lab-Tek chambers in a volume of 800 μl. HeLa-G12D cells were induced with Doxycycline (Dox) 24h before seeding and kept in Dox for the rest of the experiment.

The test system of the next data set is HCT116 wt. Description: Viability of drug-sensitive parental HCT116 cells. The class given is cell-based. Particulars: Homo sapiens, HCT-116, 72 h. The procedure: Viability is represented as percentage survival normalised to DMSO control. […] PCR reactions were carried out using Amplitaq Gold polymerase (Applied Biosystems N8080241) with a 25-cycle programme. […] Prepared samples were submitted for next generation sequencing using MiSeq Nano run with Nextera XT library preparation. Sequencing and subsequent bioinformatics were performed by Cambridge Genomic Services (University Of Cambridge).

Another data set concerns Panc 02.03. Description: Cell viability (SRB), Panc 02.03. The class given is cell-based. Particulars: Homo sapiens, Panc 02.03, 72 h. The protocol:
SW48 Parental, SW48 G12D, Panc-1, HPAF-II, Panc 02.03 and Panc 05.04 cell lines were seeded overnight at 5000 cells per well in a 96 well plate in recommended media (ATCC). Compounds were added the following day and viability was measured at 72h using the sulforhodamine B (SRB) colorimetric assay as follows. Cells were fixed by replacing media with 1% v/v Trichloroacetic Acid (TCA) (Sigma-Aldrich) at 4°C and incubated for 1h also at 4°C. Wells were washed thoroughly with copious amounts of deionised water before staining with Sulforhodamine B (SRB) (Sigma-Aldrich) solution (0.057% w/v in 1% v/v Acetic Acid (VWR)) for 30 min. Stain was aspirated and wells washed with several changes of 1% v/v Acetic Acid until unbound stain was removed, before air-drying. Bound stain was solubilized with 100μl / well 10mM Tris (pH 8.0) (Trizma Base (121.1) Sigma-Aldrich) with agitation for 10 min. Fluorescence intensity was recorded at Ex540nm / Em590nm using a BMG Pherastar Plus plate reader ([Vichai and Kirtikara, 2006]).
Pancreatic organoids were extracted and cultured as detailed above ([Boj et al., 2015]). In brief, pancreatic organoids were seeded at 600 cells per well in a 96 well plate and allowed to grow for 7 days with media replenishment on the 3rd day. Full-grown organoids were then treated with compounds for 72h and viability determined using CellTitre Glo 3D assay (Promega). For viability assays with c-MET siRNA, cells were reverse transfected in a 6 cm dish using Dharmafect 1 (GE Dharmacon) per manufacturer’s instructions. On the following day, cells were trypsinised and plated onto 96 well plates or 6 well plates. The 96 well plates were treated with a dose range of compounds or DMSO, and viability was determined via SRB colorimetric assay. […]
Cells were reverse-transfected with 50nM (SW48 parental, SW48 KRAS G12D and Panc-1) or 25nM (HeLa Flp-In T-REx parental cells) siRNA using Dharmafect (GE Dharmacon) as manufacturer’s recommendations. […] Viability was assessed after 72 hrs, with the SRB colorimetric assay. Knockdown efficiencies were determined by Western blot or RT-qPCR. […]

In general, half-life refers to the time in which the quantity being followed falls by half. A low value points to rapid decline. The hepatocyte CLint is a measure of how fast metabolising enzymes remove a compound, apart from limits set by blood flow. A word on the EC50: it is the concentration at which the effect is half-maximal. As a reminder, the GI50 is the concentration giving 50% growth inhibition.

As to `CN(C)CCNC(=O)c1ccc(-c2ccc(-c3ccc(Cl)cc3)n2-c2ccccc2C(F)(F)F)cc1` [Poloppin-II], in data set [1], the half-life was 2.27 h and the hepatocyte CLint is 10 µL/min/1e6 cells. Further, the “phospho-Ser10 histone H3 expression in xenografts” value in the data set on phospho-Ser10 histone H3 is given as “increased levels”. Besides, the remaining binding at 5 µM on NEK9 (NEK9, Poloppin-II 5µM, hit <35%) stood at 92%.

As for `O=C(O)CCc1ccc(-c2ccc(Br)cc2)n1-c1ccccc1C(F)(F)F` [Poloppin], the EC50 in the data set with human cell lines turned out to be 29.9 ± 1.12 µM; in the data set on Panc 02.03 (read-out: EC50, % survival, Panc 02.03, All Stars control siRNA, 72 h) it was 47.1 ± 1.03 µM; with Panc 02.03 (read-out: EC50, % survival, Panc 02.03, siMET, 72 h) it was 8.7 ± 1.16 µM. The figures for the GI50 in the data set on HeLa-KRAS G12D and in the data set with HCT116 wt were 5 µM and 11.1 µM, respectively. Further, the remaining binding at 50 µM on NEK9 was 95%.
